The test concerns the target T1, Caspase-1 (Homo sapiens, UniProt P29466).
T1 sequence (P29466 whole entry): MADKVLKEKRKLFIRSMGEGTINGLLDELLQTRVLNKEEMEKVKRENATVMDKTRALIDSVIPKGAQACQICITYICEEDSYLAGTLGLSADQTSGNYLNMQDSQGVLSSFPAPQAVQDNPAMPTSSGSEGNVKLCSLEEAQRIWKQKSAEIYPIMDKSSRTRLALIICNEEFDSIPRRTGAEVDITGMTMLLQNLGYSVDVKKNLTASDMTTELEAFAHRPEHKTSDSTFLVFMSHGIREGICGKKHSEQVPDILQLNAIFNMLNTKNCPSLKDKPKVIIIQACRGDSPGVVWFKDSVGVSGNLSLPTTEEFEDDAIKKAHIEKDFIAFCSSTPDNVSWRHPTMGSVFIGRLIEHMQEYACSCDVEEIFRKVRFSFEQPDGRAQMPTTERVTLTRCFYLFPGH
The test is described as follows: Caspase Inhibition Assay. The conditions noted are these: pH 7; 37 °C. As for the experimental part:
The substrate peptides terminating in AMC are processed by caspases with or without inhibitors, and the accumulation of AMC was assessed with a Cytofluor fluorescent plate reader at excitation and emission wavelengths of 380 and 460 nm. Compounds were tested, and full IC50 curves were run for all compounds expressing measurable inhibitory activity.
`CC(=O)N[C@@H](Cc1ccc(O)cc1)C(=O)N[C@H](C(=O)N[C@@H](C)C(=O)N[C@@H](CC(=O)O)C(=O)CCCCCc1ccccc1)C(C)C` [(3S)-3-[(2S)-2-[(2S)-2-[(2S)-2-acetamido-3-(4-hydroxyphenyl)propanamido]-3-methylbutanamido]propanamido]-4-oxo-9-phenylnonanoic acid] came in with a Ki of 0.011 µM. In the case of `O=C(O)C[C@H](NS(=O)(=O)c1ccccc1)C(=O)CSCCCc1ccccc1` [(3S)-3-benzenesulfonamido-4-oxo-5-[(3-phenylpropyl)sulfanyl]pentanoic acid] it was 24 µM; in that of `O=C(O)C[C@H](NS(=O)(=O)c1ccccc1)C(=O)CCCCCc1ccccc1` [(3S)-3-benzenesulfonamido-4-oxo-9-phenylnonanoic acid], 24 µM. The figure for `O=C[C@H](CC(=O)O)NS(=O)(=O)c1ccccc1` [(3S)-3-benzenesulfonamido-4-oxobutanoic acid] is 9.4 µM. The figure for `Cc1cccc(-c2ccccc2S(=O)(=O)N[C@H](C=O)CC(=O)O)c1` [(3S)-3-{[2-(3-methylphenyl)benzene]sulfonamido}-4-oxobutanoic acid] is 3.1 µM; for `Cc1ccc(-c2ccccc2S(=O)(=O)N[C@H](C=O)CC(=O)O)cc1` [(3S)-3-{[2-(4-methylphenyl)benzene]sulfonamido}-4-oxobutanoic acid] it is 7.2 µM; for `O=C[C@H](CC(=O)O)NS(=O)(=O)c1ccccc1-c1cccc2ccccc12` [(3S)-3-{[2-(naphthalen-1-yl)benzene]sulfonamido}-4-oxobutanoic acid] it is 6.9 µM. As for `Cc1ccccc1-c1ccccc1S(=O)(=O)N[C@H](C=O)CC(=O)O` [(S)-3-(2-Methyl-biphenyl-2-sulfonylamino)-4-oxo-butyric acid], the affinity, expressed as Ki, was 6.8 µM. The figure for `Cc1cccc(S(=O)(=O)N[C@H](C=O)CC(=O)O)c1-c1ccccc1` [(S)-3-(6-Methyl-biphenyl-2-sulfonylamino)-4-oxo-butyric acid] is 1.9 µM; for `O=C(O)C[C@H](NC(=O)OCc1ccccc1)C(=O)CSCCCc1ccccc1` [(S)-3-Benzyloxycarbonylamino-4-oxo-5-(3-phenyl-propyl-sulfanyl)-pentanoic acid] it is 25 µM; for `O=C(O)C[C@H](NC(=O)OCc1ccccc1)C(=O)CCCCCc1ccccc1` [(S)-3-Benzyloxycarbonylamino-4-oxo-9-phenyl-nonanoic acid] it is 119 µM.

For the origin of these results see BindingDB's records for doi:10.1016/s0968-0896(01)00250-4 (Pfizer, 2002).
